Reference: US20060166867A1, “Novel conjugates of polysaccharides and uses thereof” (priority 2003, published 2006)
Values joined by “and” are separate entries in the source; they are usually repeats but may differ in a detail not shown here. Identical values can stand only once. Like-named read-outs stand apart in the source and are kept apart here.

Experiments:
[1] = test system: A. baumannii-amikacin^r, meropenem^r; conditions: Gram negative clinical isolate
HIV-1 IIIB = experiment: microbe, parasite or virus in culture; format: cell-based
Method in brief: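 cMAGI β-galactosidase reporter cells or MT2 cells infected at 0.2-0.5 MOI with wild-type or resistant HIV-1 and incubated 4 days at 37 °C with varying compound concentrations. Infection scored by counting X-gal-stained blue cMAGI cells; MT2 syncytium formation assessed microscopically, cytotoxicity by trypan blue exclusion.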

E. coli U23773^r = conditions: Gram negative clinical isolate
[2] = test system: Acinetobacter baumannii ATCC 19606; conditions: Gram negative reference strain
E. coli U3075921 = experiment: MIC, broth microdilution; format: cell-based, Escherichia coli; conditions: clinical isolate, Table 7
Experimental: Minimal Inhibition Concentration (MIC) measurements: The Minimal Inhibitory Concentration (MIC) was generally determined by the Broth Microdilution method (based on the protocol described in Clinical and Laboratory Standard Institute (CLSI) NCCLS (2003) M7-A6), as follows:
A stock solution of each of the tested compounds was prepared by diluting the compound to a 2,560 μg/ml concentration with an appropriate solvent. The stock solution was then serially 2-fold diluted in 96-well microdilution trays using Cation-Adjusted Mueller-Hinton Broth (CAMHB) until reaching the desired range of concentrations, whereas each well contained double the final working concentration. Each row further had one growth control well (medium+inoculum only), and one sterility control well (medium+tested compound). Plates were stored at −70° C. until used.
The tested microorganisms were used as fresh overnight cultures on blood agar (for gram-positive organisms) or MacConkey agar (for gram-negatives). A standardized inoculum suspension was prepared by the direct colony suspension method, using sterile saline (equivalent to a 0.5 McFarland standard).
Thus, 50 μl of the inoculum suspension were added to each tested well (except for the sterility control well), and […] was performed during 18-24 hours (depending on the tested microorganism or compound) at 35° C.

[3] = test system: K. pneumoniae-ESBL negative; conditions: Gram negative clinical isolate
[4] = test system: Klebsiella pneumoniae ATCC 13883; conditions: Gram negative reference strain
S. aureus MSSA = conditions: Gram positive clinical isolate
E. Coli-ESBL negative = conditions: Gram negative clinical isolate
Enterobacter aerogenes = conditions: Gram negative clinical isolate
E. Coli-ESBL positive = conditions: Gram negative clinical isolate
[5] = test system: A. baumannii-amikacin^s, meropenem^s; conditions: Gram negative clinical isolate
[6] = test system: HIV-1 NeoR6 resistant virus; format: cell-based; conditions: read-out: EC50 NeoR6^Res; Table 4
Experimental: (§1) Inhibition of HIV-1 cell replication was tested using the cMAGI assay, which is based on the ability of HIV-1 TAT to transactivate the expression of an integrated β-galactosidase reporter gene driven by the HIV-LTR (B. Chackeria et al., J. Virol., (1997) 71, 3932; Collins et al., Nat. Med. (2000) 6, 475). The β-galactosidase reporter is modified to remain localized in the nucleus where it can be detected with the X-gal (5-bromo-4-chloro-3indoyl-β-D-galactopyranoside) substrate as an intense nuclear stain within a few days of infection.
(§2) HIV-1 isolates were propagated by subculture in MT2 cells (Litovchick et al. (2001) supra). Aliquots of cell-free culture supernatants were used as viral inoculum. PAACs were dissolved in the RPMI 1640 medium. Cytotoxicity determinations were carried out in MT2 cells by trypan blue exclusion assay. Viral inhibition was determined by incubating MT2 or cMAGI HIV-1 reporter cells with 0.2-0.5 multiplicity of infection of HIV-1 wild type or resistant virus for 4 days at 37° C. in the presence or absence of various concentrations of pAACs. HIV-1 infection of cMAGI cells was determined by counting the number of HIV-1-infected cells (stained blue). The cytopathic effects of the viral infection of MT2 cells were also analyzed by microscopic assessment of syncytium formation.

[7] = test system: HIV-1 Protease resistant virus; format: cell-based; conditions: Table 4; read-out: EC50 Protease^Res
Experimental: as §1, §2

[8] = test system: HIV-1 clinical isolate Clade C; format: cell-based
Experimental: as §1, §2

HIV-1 Ba-L = format: cell-based; conditions: Table 4
Experimental: as §1, §2

[9] = test system: HIV-1 clinical isolate Clade A; format: cell-based
Experimental: as §1, §2

[10] = test system: HIV-1 AZT resistant virus; format: cell-based; conditions: Table 4; read-out: EC50 AZT^Res
Experimental: as §1, §2

CXCR4 = biological target: T1, CXCR4 (Homo sapiens, UniProt P61073); experiment: Competition with 12G5 mAb binding to CXCR4 on MT2 cells (flow cytometry)
T1 construct: incubated at 4° C. with anti-CXCR4 mAb, 12G5, conjugated to phycoerithrine (PE); endogenous in cells; host or cells: MT2 cells
Method in brief: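 MT2 cells (0.5×10^6) were incubated for 30 min at 4 °C with PE-conjugated 12G5 anti-CXCR4 mAb, alone or with varying concentrations of pAACs or arginine peptides, in ice-cold PBS/0.1% azide. Cells were then fixed in 1% paraformaldehyde and analysed by flow cytometry (10,000 events), with an isotype control defining non-specific fluorescence.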

[11] = test system: Moraxella catarrhalis ATCC 25238 (Branhamella); conditions: Gram negative reference strain
[12] = test system: Pseudomonas aeruginosa ATCC 27853; conditions: Gram negative reference strain
[13] = test system: P. aeruginosa-gentamicin^s, meropenem^s; conditions: Gram negative clinical isolate

T1 sequence (P61073 whole entry): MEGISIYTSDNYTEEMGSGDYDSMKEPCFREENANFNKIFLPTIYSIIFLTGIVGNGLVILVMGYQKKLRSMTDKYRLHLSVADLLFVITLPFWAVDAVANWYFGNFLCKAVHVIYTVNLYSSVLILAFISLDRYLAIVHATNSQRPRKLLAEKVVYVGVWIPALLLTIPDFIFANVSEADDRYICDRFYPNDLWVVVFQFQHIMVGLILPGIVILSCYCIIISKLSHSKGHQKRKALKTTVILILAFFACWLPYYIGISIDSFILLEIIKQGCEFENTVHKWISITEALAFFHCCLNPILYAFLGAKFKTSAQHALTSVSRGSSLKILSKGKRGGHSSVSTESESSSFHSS

Compound	Minimum Inhibitory Concentration [1]	Minimum Inhibitory Concentration (E. coli U23773^r)	Minimum Inhibitory Concentration [2]	Minimum Inhibitory Concentration (E. coli U3075921)	Minimum Inhibitory Concentration [3]	Minimum Inhibitory Concentration [4]	Minimum Inhibitory Concentration (S. aureus MSSA)	EC50 (HIV-1 IIIB; Table 4, read-out: EC50 IIIB)	Minimum Inhibitory Concentration (E. Coli-ESBL negative)	Minimum Inhibitory Concentration (Enterobacter aerogenes)	Minimum Inhibitory Concentration (E. Coli-ESBL positive)	Minimum Inhibitory Concentration [5]	EC50 [6]	EC50 [7]	EC50 (HIV-1 Ba-L)	EC50 [10]	Minimum Inhibitory Concentration [11]	Minimum Inhibitory Concentration [12]	Minimum Inhibitory Concentration [13]	further results
NCC1OC(OC2C(CO)OC(OC3C(O)C(N)CC(N)C3OC3OC(CN)C(O)C(O)C3N)C2O)C(N)C(O)C1O (stereo not shown) [Neomycin]	105.61 µM	140.81 µM	–	–	–	–	–	–	–	–	–	–	–	–	–	–	–	–	–	EC50 (HIV-1 IIIB; Human immunodeficiency virus 1, MT2, Table 3, against HIV-1 IIIB virus, read-out: EC50): > 200000 nM
CC(=O)N[C@H](CCCNC(=N)N)C(=O)N[C@H](CCCNC(=N)N)C(=O)N[C@H](CCCNC(=N)N)C(=O)N[C@H](CCCNC(=N)N)C(=O)N[C@H](CCCNC(=N)N)C(=O)N[C@H](CCCNC(=N)N)C(=O)N[C@H](CCCNC(=N)N)C(=O)N[C@H](CCCNC(=N)N)C(=O)N[C@H](CCCNC(=N)N)C(=O)O [Compound 12, D-Arg-9-mer-NHAc]	> 256.0 mg/liter and 127.64 μM	64.0 mg/L	> 256.0 mg/liter and 127.64 μM	96.0 mg/L	256.0 mg/liter and 127.64 μM	96.0 mg/liter and 47.86 μM	> 128.0 mg/liter and 63.82 μM	1500 ± 600 nM	128.0 mg/liter and 63.82 μM	128.0 mg/liter and 63.82 μM	64.0 mg/liter and 31.91 μM	256.0 mg/liter and 127.64 μM	2000 ± 1200 nM	1400 ± 600 nM	> 50000 nM	9700 ± 5900 nM	16.0 mg/liter and 7.98 μM	> 256.0 mg/liter and 127.64 μM	> 256.0 mg/liter and 127.64 μM	EC50 ([8]; clinical isolate Clade C): 1600 ± 400 nM; EC50 ([9]; clinical isolate Clade A): 2200 ± 300 nM; inhibition at 2 µM (CXCR4; 2 μM, read-out: % Inhibition of 12G5 mAb binding to CXCR4): 81.3%; inhibition at 10 µM (CXCR4; 10 μM, read-out: % Inhibition of 12G5 mAb binding to CXCR4): 99.6%
D-Arg-9-mer-neomycin [Compound 14]	> 256.0 mg/liter and 88.22 μM	32.0 mg/L	> 256.0 mg/liter and 88.22 μM	48.0 mg/liter and 16.54 μM	64.0 mg/liter and 22.05 μM	12.0 mg/liter and 4.14 μM	16.0 mg/liter and 5.51 μM	1300 ± 400 nM	16.0 mg/liter and 5.51 μM	32.0 mg/liter and 11.02 μM	24.0 mg/liter and 8.27 μM	128.0 mg/liter and 44.11 μM	2000 ± 500 nM	1500 ± 400 nM	> 50000 nM	6600 ± 5900 nM	8.0 mg/liter and 2.76 μM	> 256.0 mg/liter and 88.22 μM	> 256.0 mg/liter and 88.22 μM	EC50 ([8]; Table 4, read-out: EC50 Clade C): 1200 ± 500 nM; EC50 ([9]; Table 4, read-out: EC50 Clade A): 2100 ± 400 nM; % Inhibition of 12G5 mAb binding to CXCR4 (CXCR4; 2 μM): 95.3%; % Inhibition of 12G5 mAb binding to CXCR4 (CXCR4; 10 μM): 100%
